Measurements published in US20110166132A1, “Gamma Secretase Modulators” (Amgen Inc., priority 2007, published 2011).

Each compound was assayed against T1, gamma secretase (Homo sapiens, UniProt P49768) (assay: GSM cell-based assay: Aβ 42 inhibition or reduction in HEK 293 cells over-expressing APP (sandwich ELISA)). Conditions: approximate IC50; HEK293 cells stably expressing full length APP, 24 hours incubation, 10-point dose response starting at 10 μM.
T1 construct: HEK293 cells stably expressing full length Amyloid Precursor Protein (APP); endogenous in cells; host or cells: HEK 293 cells stably expressing full length APP
Excerpt: GSM cell-based assays were designed to measure the modulation of Aβ 42 from HEK 293 cells over-expressing APP.
Three simultaneous cell-based assays, namely Aβ 42 inhibition or reduction, Aβ 40 inhibition or reduction and a measurement of cell viability of the cells from which the Aβ 42/40 readout was obtained, together gave an interpretation of gamma secretase modulation (GSM). The assays measure Aβ 42 and Ab 40 from conditioned medium of test compound treated HEK 293 cells.
HEK293 cells stably expressing full length Amyloid Precursor Protein (APP) were plated at a density of 100K cells/well in 96 well plates (Costar). The cells were cultivated for 6 hours at 37° C. and 5% CO2 in DMEM supplemented with 10% FBS. The test compounds were then added to cells in 10-point dose response concentrations with the starting concentration being 10 μM. The compounds were diluted from stock solutions in DMSO and the final DMSO concentration of the test compounds on cells was 0.1%. After 24 hours of incubation with the test compounds the supernatant conditioned media was collected and the Aβ 42, Aβ 40 levels were determined using a sandwich ELISA. A cell viability test (CellTiter-Blue Cell Viability assay, Promega) on the cells from which the conditioned medium was harvested for Aβ 42 or Aβ 40 readouts gave an indication of cell survivability as a possible reason for false positive Aβ 42 or 40 reduction or inhibition readout. The IC50 of the compound (for either Aβ 42 or Aβ 40) was calculated from the percent of control or percent inhibition of Aβ 42 or Aβ 40 as a function of the concentration of the test compound.
The sandwich ELISA to detect Aβ 42 or Aβ 40 was performed in 96 well microtiter plates, which were pre-treated with goat anti-rabbit IgG (Pierce). The capture and detecting antibody pair that were used to detect Aβ 42 and Aβ 40 from cell supernatants were rabbit monoclonal Antibody 42 (RabMAb 42) and affinity purified polyclonal Antibody 40 pAB40 (Biosource) as capture antibodies and biotinylated 6E10 (Signet Labs Inc.) as detection antibody. The optimal concentration for RabMAb 42 was 1 μg/ml in Superblock/TBS (Pierce) that was supplemented with 0.05% Tween 20 (Sigma). The optimal concentration for the pAb40 antibody was 3 μg/ml in Superblock/TBS (Pierce) that was supplemented with 0.05% Tween 20 (Sigma). Optimal concentration for the detection antibody 6E10-biotinylated was 0.5 μg/ml in Superblock/TBS (Pierce) that had been supplemented with 2% normal goat serum and 2% normal mouse serum.
Cellular supernatants were incubated with the capture antibody for 16-20 hours at 4° C., followed by 3 wash steps in TBS-tween (0.05%). The detecting antibody incubation was for 3 hours at 4° C., again followed by the wash steps as described previously. The final readout of the ELISA is Time-Resolved Fluorescence (counts per minute) using Delfia reagents Streptavidin-Europium and Enhancement solutions (Perkin Elmer) and the EnVision Multilabel plate reader (Perkin Elmer).

SMILES | IC50 [nM]
Cc1cc(-c2ccc(NC(=O)Cc3cccc(C#N)c3)cc2)ccn1 [Cpd 321, 2-(3-cyanophenyl)-N-(4-(2-methyl-4-pyridinyl)phenyl)acetamide] | > 10000
Cc1cc(-c2ccc(NC(=O)C(C)(C)c3cc(C(F)(F)F)cc(C(F)(F)F)c3)cc2)ccn1 [Cpd 336] | > 10000
Cc1cccc(C(C(=O)Nc2ccc(-c3ccnc(C)c3)cc2)C(C)C)c1 (stereo not shown) [Cpd 338, 3-methyl-2-(3-methylphenyl)-N-(4-(2-methyl-4-pyridinyl)phenyl)butanamide] | 1350
CC[C@H](C(=O)Nc1ccc(-c2ccnc(C)c2)cc1)c1ccccc1 [Cpd 345, (2S)-N-(4-(2-methyl-4-pyridinyl)phenyl)-2-phenylbutanamide] | 1870
CCCC(C(=O)Nc1ccc(-c2ccnc(C)c2)cc1)c1ccccc1 (stereo not shown) [Cpd 368, N-(4-(2-methyl-4-pyridinyl)phenyl)-2-phenylpentanamide] | 2650
Cc1cc(-c2ccc(NC(=O)c3cccc(-c4ccccc4)c3)cc2)ccn1 [Cpd 386] | 874
Cc1cc(-c2ccc(NC(=O)C(C)c3ccc(N)cc3)cc2)ccn1 (stereo not shown) [Cpd 419, 2-(4-aminophenyl)-N-(4-(2-methyl-4-pyridinyl)phenyl)propanamide] | > 10000
Cc1cc(-c2ccc(NC(=O)C(C)c3cccc(C4=CCNCC4)c3)cc2)ccn1 (stereo not shown) [Cpd 425, N-(4-(2-methyl-4-pyridinyl)phenyl)-2-(3-(1,2,3,6-tetrahydro-4-pyridinyl)phenyl)-propanamide] | > 10000
Cc1cc(-c2ccc(NC(=O)C(C)c3cc(N4CCOCC4)cc(C(F)(F)F)c3)cc2)ccn1 (stereo not shown) [Cpd 441, N-(4-(2-methyl-4-pyridinyl)phenyl)-2-(3-(4-morpholinyl)-5-(trifluoromethyl)phenyl)-propanamide] | 1840
Cc1cc(-c2ccc(NC(=O)C(C)c3ccc(NC(C)C)cc3)cc2)ccn1 (stereo not shown) [Cpd 443] | 302
Cc1cc(-c2ccc(NC(=O)C(C)c3cccc(-c4ccc(OC(F)(F)F)cc4)c3)cc2)ccn1 (stereo not shown) [Cpd 453, N-(4-(2-methyl-4-pyridinyl)phenyl)-2-(4′-(trifluoromethoxy)-3-biphenylyl)-propanamide] | 1420
Cc1cc(-c2ccc(NC(=O)C(C)n3cc(-c4ccccc4)c(C)n3)cc2)ccn1 (stereo not shown) [Cpd 455, 2-(3-methyl-4-phenyl-1H-pyrazol-1-yl)-N-(4-(2-methyl-4-pyridinyl)phenyl)-propanamide] | 908
Cc1cc(-c2ccc(NC(=O)C(C)c3cccc(Br)c3)cc2C#N)ccn1 (stereo not shown) [Cpd 460, 2-(3-bromophenyl)-N-(3-cyano-4-(2-methyl-4-pyridinyl)phenyl)propanamide] | 5760
COc1cc(NC(=O)[C@H](C)c2cccc(Br)c2)ccc1-c1ccnc(C)c1 [Cpd 461, (2R)-2-(3-bromophenyl)-N-(3-methoxy-4-(2-methyl-4-pyridinyl)phenyl)propanamide] | 911
Cc1cc(-c2ccc(NC(=O)C(C)c3ccc(N(C)C(C)C)cc3)cc2)ccn1 (stereo not shown) [Cpd 481, 2-(4-(methyl(1-methylethyl)amino)phenyl)-N-(4-(2-methyl-4-pyridinyl)phenyl)-propanamide] | 2130
COc1ncc(-c2cccc([C@@H](C)C(=O)Nc3ccc(-c4ccnc(C)c4)cc3)c2)cn1 [Cpd 502, (2R)-2-(3-(2-methoxy-5-pyrimidinyl)-phenyl)-N-(4-(2-methyl-4-pyridinyl)-phenyl)propanamide] | > 10000
CC(=O)N1CCN(c2ccc(-c3cccc([C@@H](C)C(=O)Nc4ccc(-c5ccnc(C)c5)cc4)c3)cc2)CC1 [Cpd 522] | 320
Cc1cc(-c2ccc(NC(=O)C(C)c3cccc(C4CC4)c3)cc2)ccn1 (stereo not shown) [Cpd 524, 2-(3-cyclopropylphenyl)-N-(4-(2-methyl-4-pyridinyl)phenyl)propanamide] | 1200
CCN(Cc1cc(OC)c(OC)c(OC)c1)c1ccc(C(C)C(=O)Nc2ccc(-c3ccnc(C)c3)cc2)cc1 (stereo not shown) [Cpd 526, 2-(4-(ethyl(3,4,5-trimethoxybenzyl)amino)-phenyl)-N-(4-(2-methyl-4-pyridinyl)-phenyl)propanamide] | 310
Cc1cc(-c2ccc(NC(=O)CC3CCCC3)cc2)ccn1 [Cpd 558, 2-cyclopentyl-N-(4-(2-methyl-4-pyridinyl)-phenyl)acetamide] | > 10000
Cc1cc(-c2ccc(NC(=O)C(C)c3ccc(N4CCCCC4)nc3)cc2)ccn1 (stereo not shown) [Cpd 580, N-(4-(2-methyl-4-pyridinyl)phenyl)-2-(6-(1-piperidinyl)-3-pyridinyl)propanamide] | 616
Cc1cc(-c2ccc(NC(=O)Cc3ccc4oc(-c5ccncc5)nc4c3)cc2)ccn1 [Cpd 584, N-(4-(2-methyl-4-pyridinyl)phenyl)-2-(2-(4-pyridinyl)-1,3-benzoxazol-5-yl)-acetamide] | > 10000
Cc1cc(-c2ccc(NC(=O)c3ccc(CN4CCOCC4)cc3)cc2)ccn1 [Cpd 625] | > 3330
Cc1cc(C(C)C(=O)Nc2ccc(-c3ccnc(C)c3)cc2)cc(N2CCC(F)(F)CC2)c1 (stereo not shown) [Cpd 637, 2-(3-(4,4-difluoro-1-piperidinyl)-5-methyl-phenyl)-N-(4-(2-methyl-4-pyridinyl)-phenyl)propanamide] | > 10000
Cc1cc(-c2ccc(NC(=O)[C@H](C)c3cccc(-c4ccc(C(=O)O)cc4)c3)cc2)ccn1 [Cpd 639] | > 10000

The remaining lines, values ahead:

IC50 [nM] | SMILES
> 10000 | Cc1cc(-c2ccc(NC(=O)C3CCN(Cc4ccccc4)CC3)cc2)ccn1 [Cpd 312]
> 10000 | Cc1cc(-c2ccc(NC(=O)c3cc4ccc(F)cc4s3)cc2)ccn1 [Cpd 314]
2160 | Cc1cc(-c2ccc(NC(=O)c3cn4cc(Br)ccc4n3)cc2)ccn1 [Cpd 315]
2690 | Cc1cc(-c2ccc(NC(=O)C3CCCc4ccccc43)cc2)ccn1 (stereo not shown) [Cpd 322]
1170 | Cc1cc(-c2ccc(NC(=O)C3(c4ccc(Cl)cc4Cl)CC3)cc2)ccn1 [Cpd 332]
> 10000 | CC[C@@H](C(=O)Nc1ccc(-c2ccnc(C)c2)cc1)c1ccccc1 [Cpd 344, (2R)-N-(4-(2-methyl-4-pyridinyl)phenyl)-2-phenylbutanamide]
2390 | Cc1cc(-c2ccc(NC(=O)Cc3ccc(F)c(C(F)(F)F)c3)cc2)ccn1 [Cpd 351, 2-(4-fluoro-3-(trifluoromethyl)phenyl)-N-(4-(2-methyl-4-pyridinyl)phenyl)acetamide]
1020 | Cc1cc(-c2ccc(NC(=O)C(C)n3ccc4ccccc43)cc2)ccn1 (stereo not shown) [Cpd 414, 2-(1H-indol-1-yl)-N-(4-(2-methyl-4-pyridinyl)phenyl)propanamide]
628 | Cc1cc(-c2ccc(NC(=O)C(C)c3cccc(-c4ccc(S(C)(=O)=O)cc4)c3)cc2)ccn1 (stereo not shown) [Cpd 442, N-(4-(2-methyl-4-pyridinyl)phenyl)-2-(4′-(methylsulfonyl)-3-biphenylyl)propanamide]
806 | COc1cc(NC(=O)C(C)c2cc(F)cc(C(F)(F)F)c2)ccc1-c1ccnc(C)c1 (stereo not shown) [Cpd 454, 2-(3-fluoro-5-(trifluoromethyl)phenyl)-N-(3-methoxy-4-(2-methyl-4-pyridinyl)-phenyl)propanamide]
> 10000 | Cc1cc(-c2ccc(NC(=O)C(C)c3ccc4c(c3)CCN4)cc2)ccn1 (stereo not shown) [Cpd 497, 2-(2,3-dihydro-1H-indol-5-yl)-N-(4-(2-methyl-4-pyridinyl)phenyl)propanamide]
> 10000 | COc1cc(C(C)C(=O)Nc2ccc(-c3ccnc(C)c3)cc2)ccc1N (stereo not shown) [Cpd 574, 2-(4-amino-3-methoxyphenyl)-N-(4-(2-methyl-4-pyridinyl)phenyl)propanamide]
1520 | COc1cc(C(C)C(=O)Nc2ccc(-c3ccnc(C)c3)cc2)ccc1NC(C)C (stereo not shown) [Cpd 575, 2-(3-methoxy-4-((1-methylethyl)amino)-phenyl)-N-(4-(2-methyl-4-pyridinyl)-phenyl)propanamide]
4610 | Cc1cc(-c2ccc(NC(=O)Cc3ccc4oc(-c5cccnc5)nc4c3)cc2)ccn1 [Cpd 583, N-(4-(2-methyl-4-pyridinyl)phenyl)-2-(2-(3-pyridinyl)-1,3-benzoxazol-5-yl)-acetamide]
5100 | Cc1cc(-c2ccc(NC(=O)c3ccc4[nH]c5c(c4c3)CSCC5)cc2)ccn1 [Cpd 662]
